Laboratory results as given in patent US9376442B2, “Methylpyrrolopyrimidinecarboxamides” (Takeda GmbH, priority 2009, dated 2016).

What follows are compounds tested against T1, PDE5A1 (Homo sapiens, UniProt O76074) (assay: Inhibition of type 5 phosphodiesterase (PDE5) activity, modified SPA test with human platelet lysate). Conditions: 0.5 μM cGMP, read-out: PDE5A1 inhibitory values [measured as −log IC50 (mol/l)] (converted).
T1 construct: from tissue; host or cells: human platelets from fresh donor blood (10,000 x g supernatant of sonicated lysate)
Assay type: biochemical
Summary of the method: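 Scintillation proximity assay with [3H]cGMP tracer at 0.5 μM total cGMP, stopped after 15 min with beads containing IBMX. PDE3 and PDE2 activities suppressed with motapizone (1 μM) and a PDE2 inhibitor (10 nM). Human platelet supernatant served as the enzyme, with compound preincubated 5 min at 37° C; IC50 values from concentration-effect curves.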

`Cc1cc(-c2ncnc3c(C(=O)N[C@@H]4CCN(C(=O)CO)C[C@H]4O)c(C)[nH]c23)c(OCC2CC2)cc1F` (relative stereo) [Example F81, 4-[2-(Cyclopropylmethoxy)-4-fluoro-5-methylphenyl]-N-[(3R*,4R*)-3-hydroxy-1-(hydroxyacetyl)piperidin-4-yl]-6-methyl-5H-pyrrolo[3,2-d]pyrimidine-7-carboxamide] and `COc1cc(OCC2CC2)c(-c2ncnc3c(C(=O)N[C@@H]4CCN(C(=O)CO)C[C@H]4O)c(C)[nH]c23)cc1F` (relative stereo) [Example F89, 4-[2-(cyclopropylmethoxy)-5-fluoro-4-methoxyphenyl]-N-[(3R*,4R*)-3-hydroxy-1-(hydroxyacetyl)piperidin-4-yl]-6-methyl-5H-pyrrolo[3,2-d]pyrimidine-7-carboxamide] cannot be ordered by IC50: under 1 nM for the first, under 1 nM for the second.

`COc1cc(-c2ncnc3c(C(=O)N[C@@H]4CN(C(=O)CO)C[C@H]4O)c(C)[nH]c23)c(OCC2CC2)cc1F` (relative stereo) [Example F113, 4-[2-(Cyclopropylmethoxy)-4-fluoro-5-methoxyphenyl]-N-[(3R*,4R*)-1-glycoloyl-4-hydroxypyrrolidin-3-yl]-6-methyl-5H-pyrrolo[3,2-d]pyrimidine-7-carboxamide] and `COc1cc(OCC2CC2)c(-c2ncnc3c(C(=O)N[C@@H]4CN(C(=O)CO)C[C@H]4O)c(C)[nH]c23)cc1F` (relative stereo) [Example F117, 4-[2-(Cyclopropylmethoxy)-5-fluoro-4-methoxyphenyl]-N-[(3R*,4R*)-1-glycoloyl-4-hydroxypyrrolidin-3-yl]-6-methyl-5H-pyrrolo[3,2-d]pyrimidine-7-carboxamide] cannot be ordered by IC50: under 1 nM for the first, under 1 nM for the second.

`COc1cc(-c2ncnc3c(C(=O)N[C@@H]4CN(C(=O)[C@H](C)O)C[C@H]4O)c(C)[nH]c23)c(OCC2CC2)cc1F` (relative stereo) [Example F114, 4-[2-(Cyclopropylmethoxy)-4-fluoro-5-methoxyphenyl]-N-{(3R*,4R*)-4-hydroxy-1-[(2S)-2-hydroxypropanoyl]pyrrolidin-3-yl}-6-methyl-5H-pyrrolo[3,2-d]pyrimidine-7-carboxamide] and `COc1cc(OCC2CC2)c(-c2ncnc3c(C(=O)N[C@@H]4CN(C(=O)[C@H](C)O)C[C@H]4O)c(C)[nH]c23)cc1F` (relative stereo) [Example F118, 4-[2-(Cyclopropylmethoxy)-5-fluoro-4-methoxyphenyl]-N-{(3R*,4R*)-4-hydroxy-1-[(2S)-2-hydroxypropanoyl]pyrrolidin-3-yl}-6-methyl-5H-pyrrolo[3,2-d]pyrimidine-7-carboxamide] cannot be ordered by IC50: under 1 nM for the first, under 1 nM for the second.

First: COc1ccc(OCC2CC2)c(-c2ncnc3c(C(=O)N[C@@H]4CN(C(=O)CO)C[C@H]4O)c(C)[nH]c23)c1 (relative stereo) [Example F119, 4-[2-(Cyclopropylmethoxy)-5-methoxyphenyl]-N-[(3R*,4R*)-1-glycoloyl-4-hydroxypyrrolidin-3-yl]-6-methyl-5H-pyrrolo[3,2-d]pyrimidine-7-carboxamide]
Second: COCC(=O)N1CCC(NC(=O)c2c(C)[nH]c3c(-c4ccc(F)cc4OCC4CC4)ncnc23)CC1 [Example E21, 4-[2-(Cyclopropylmethoxy)-4-fluorophenyl]-N-[1-(methoxyacetyl)piperidin-4-yl]-6-methyl-5H-pyrrolo[3,2-d]pyrimidine-7-carboxamide]
The IC50 of the first is higher: 1 to 10 nM for the first, under 1 nM for the second.

`CC(=O)N1CCC(NC(=O)c2c(C)[nH]c3c(-c4c(OCC5CC5)ccc5c4OCO5)ncnc23)CC1` [Example E1, N-(1-Acetylpiperidin-4-yl)-4-[5-(cyclopropylmethoxy)-1,3-benzodioxol-4-yl]-6-methyl-5H-pyrrolo[3,2-d]pyrimidine-7-carboxamide] and `CCC(=O)N1CCC(NC(=O)c2c(C)[nH]c3c(-c4c(OCC5CC5)ccc5c4OCO5)ncnc23)CC1` [Example E2, 4-[5-(Cyclopropylmethoxy)-1,3-benzodioxol-4-yl]-6-methyl-N-(1-propionylpiperidin-4-yl)-5H-pyrrolo[3,2-d]pyrimidine-7-carboxamide] cannot be ordered by IC50: under 1 nM for the first, under 1 nM for the second.

`COCC(=O)N1CCC(NC(=O)c2c(C)[nH]c3c(-c4c(OCC5CC5)ccc5c4OCO5)ncnc23)CC1` [Example E3, 4-[5-(Cyclopropylmethoxy)-1,3-benzodioxol-4-yl]-N-[1-(methoxyacetyl)piperidin-4-yl]-6-methyl-5H-pyrrolo[3,2-d]pyrimidine-7-carboxamide] and `COCC(=O)N1CC[C@@H](NC(=O)c2c(C)[nH]c3c(-c4c(OCC5CC5)ccc5c4OCO5)ncnc23)C1` [Example E15, 4-[5-(Cyclopropylmethoxy)-1,3-benzodioxol-4-yl]-N-[(3R)-1-(methoxyacetyl)pyrrolidin-3-yl]-6-methyl-5H-pyrrolo[3,2-d]pyrimidine-7-carboxamide] cannot be ordered by IC50: under 1 nM for the first, under 1 nM for the second.

`CCOC(=O)N1CCC(NC(=O)c2c(C)[nH]c3c(-c4c(OCC5CC5)ccc5c4OCO5)ncnc23)CC1` [Example E4, Ethyl 4-[({4-[5-(cyclopropylmethoxy)-1,3-benzodioxol-4-yl]-6-methyl-5H-pyrrolo[3,2-d]pyrimidin-7-yl}carbonyl)amino]piperidine-1-carboxylate] and `CCC(=O)N1CC[C@@H](NC(=O)c2c(C)[nH]c3c(-c4c(OCC5CC5)ccc5c4OCO5)ncnc23)C1` [Example E14, 4-[5-(Cyclopropylmethoxy)-1,3-benzodioxol-4-yl]-6-methyl-N-[(3R)-1-propionylpyrrolidin-3-yl]-5H-pyrrolo[3,2-d]pyrimidine-7-carboxamide] cannot be ordered by IC50: under 1 nM for the first, under 1 nM for the second.

`CC(=O)N[C@H]1CC[C@H](NC(=O)c2c(C)[nH]c3c(-c4c(OCC5CC5)ccc5c4OCO5)ncnc23)CC1` [Example E5, N-(trans-4-acetamidocyclohexyl)-4-[5-(cyclopropylmethoxy)-1,3-benzodioxol-4-yl]-6-methyl-5H-pyrrolo[3,2-d]pyrimidine-7-carboxamide] and `CC(=O)N[C@H]1CC[C@@H](NC(=O)c2c(C)[nH]c3c(-c4c(OCC5CC5)ccc5c4OCO5)ncnc23)CC1` [Example E9, N-(cis-4-acetamidocyclohexyl)-4-[5-(cyclopropylmethoxy)-1,3-benzodioxol-4-yl]-6-methyl-5H-pyrrolo[3,2-d]pyrimidine-7-carboxamide] cannot be ordered by IC50: under 1 nM for the first, under 1 nM for the second.

`CCC(=O)N[C@H]1CC[C@H](NC(=O)c2c(C)[nH]c3c(-c4c(OCC5CC5)ccc5c4OCO5)ncnc23)CC1` [Example E6, 4-[5-(Cyclopropylmethoxy)-1,3-benzodioxol-4-yl]-6-methyl-N-[trans-4-(propionylamino)cyclohexyl]-5H-pyrrolo[3,2-d]pyrimidine-7-carboxamide] and `CCC(=O)N[C@H]1CC[C@@H](NC(=O)c2c(C)[nH]c3c(-c4c(OCC5CC5)ccc5c4OCO5)ncnc23)CC1` [Example E10, 4-[5-(Cyclopropylmethoxy)-1,3-benzodioxol-4-yl]-6-methyl-N-[cis-4-(propionylamino)cyclohexyl]-5H-pyrrolo[3,2-d]pyrimidine-7-carboxamide] cannot be ordered by IC50: under 1 nM for the first, under 1 nM for the second.

`COCC(=O)N[C@H]1CC[C@H](NC(=O)c2c(C)[nH]c3c(-c4c(OCC5CC5)ccc5c4OCO5)ncnc23)CC1` [Example E7, 4-[5-(Cyclopropylmethoxy)-1,3-benzodioxol-4-yl]-N-{trans-4-[(methoxyacetyl)amino]cyclohexyl}-6-methyl-5H-pyrrolo[3,2-d]pyrimidine-7-carboxamide] and `COCC(=O)N[C@H]1CC[C@@H](NC(=O)c2c(C)[nH]c3c(-c4c(OCC5CC5)ccc5c4OCO5)ncnc23)CC1` [Example E11, 4-[5-(Cyclopropylmethoxy)-1,3-benzodioxol-4-yl]-N-{cis-4-[(methoxyacetyl)amino]cyclohexyl}-6-methyl-5H-pyrrolo[3,2-d]pyrimidine-7-carboxamide] cannot be ordered by IC50: under 1 nM for the first, under 1 nM for the second.

`CCOC(=O)N[C@H]1CC[C@H](NC(=O)c2c(C)[nH]c3c(-c4c(OCC5CC5)ccc5c4OCO5)ncnc23)CC1` [Example E8, Ethyl {trans-4-[({4-[5-(cyclopropylmethoxy)-1,3-benzodioxol-4-yl]-6-methyl-5H-pyrrolo[3,2-d]pyrimidin-7-yl}carbonyl)amino]cyclohexyl}carbamate] and `CCOC(=O)N[C@H]1CC[C@@H](NC(=O)c2c(C)[nH]c3c(-c4c(OCC5CC5)ccc5c4OCO5)ncnc23)CC1` [Example E12, Ethyl {cis-4-[({4-[5-(cyclopropylmethoxy)-1,3-benzodioxol-4-yl]-6-methyl-5H-pyrrolo[3,2-d]pyrimidin-7-yl}carbonyl)amino]cyclohexyl}carbamate] cannot be ordered by IC50: under 1 nM for the first, under 1 nM for the second.

`CC(=O)N1CC[C@@H](NC(=O)c2c(C)[nH]c3c(-c4c(OCC5CC5)ccc5c4OCO5)ncnc23)C1` [Example E13, N-[(3R)-1-acetylpyrrolidin-3-yl]-4-[5-(cyclopropylmethoxy)-1,3-benzodioxol-4-yl]-6-methyl-5H-pyrrolo[3,2-d]pyrimidine-7-carboxamide] and `CC(=O)N1CCC(NC(=O)c2c(C)[nH]c3c(-c4ccc(F)cc4OCC4CC4)ncnc23)CC1` [Example E19, N-(1-acetylpiperidin-4-yl)-4-[2-(cyclopropylmethoxy)-4-fluorophenyl]-6-methyl-5H-pyrrolo[3,2-d]pyrimidine-7-carboxamide] cannot be ordered by IC50: under 1 nM for the first, under 1 nM for the second.

`CCC(=O)N1CCC(NC(=O)c2c(C)[nH]c3c(-c4ccc(F)cc4OCC4CC4)ncnc23)CC1` [Example E20, 4-[2-(Cyclopropylmethoxy)-4-fluorophenyl]-6-methyl-N-(1-propionylpiperidin-4-yl)-5H-pyrrolo[3,2-d]pyrimidine-7-carboxamide] and `CC(=O)N[C@H]1CC[C@H](NC(=O)c2c(C)[nH]c3c(-c4ccc(F)cc4OCC4CC4)ncnc23)CC1` [Example E22, N-(trans-4-acetamidocyclohexyl)-4-[2-(cyclopropylmethoxy)-4-fluorophenyl]-6-methyl-5H-pyrrolo[3,2-d]pyrimidine-7-carboxamide] cannot be ordered by IC50: under 1 nM for the first, under 1 nM for the second.
